Measured values published in ChEMBL document CHEMBL1208783, “An orally bioavailable positive allosteric modulator of the mGlu4 receptor with efficacy in an animal model of motor dysfunction” (Bioorg Med Chem Lett, 2010).
pEC50, pIC50: −log10 of the molar value.

Columns and labels:
[1] = target: T1, Metabotropic glutamate receptor 4 (Homo sapiens, UniProt Q14833); experiment: Positive allosteric modulation of human mGluR4 expressed in CHO-K1 cells assessed as decrease in forskolin-induced intracellular cAMP accumulation after 1 hr by fluorescence assay; type: functional, cell-based
[2] = target: T1, Metabotropic glutamate receptor 4; experiment: Positive allosteric modulation of human mGluR4 expressed in CHO-K1 cells assessed as decrease in forskolin-induced intracellular cAMP accumulation after 1 hr by fluorescence assay relative to (-)-PHCC; type: functional, cell-based
[3] = Metabolic stability in human microsomes; type: ADME, Microsome
[4] = Plasma protein binding in rat; type: ADME, cell-free; conditions: read-out: PPB (converted)
[5] = Drug level in rat CSF at 30 mg/kg, po measured at 30 mins post dose; type: ADME, organism-based, Cerebrospinal fluid; parameters: dose 30 mg/kg, route oral; conditions: read-out: Drug uptake
[6] = Clearance in rat at 2 mg/kg, iv; type: ADME, organism-based; parameters: dose 2 mg/kg, route intravenous; conditions: in vivo
[7] = Oral bioavailability in rat at 30 mg/kg, po after 30 mins; type: ADME, organism-based; conditions: in vivo
Cytochrome P450 2D6 = Cytochrome P450 2D6 (Homo sapiens, UniProt P10635); experiment: Inhibition of CYP2D6 up to 50 uM; type: ADME
[8] = target: Adenosine receptor A2a (Homo sapiens) (UniProt P29274); experiment: Activity at adenosine A2A receptor at 10 uM
[9] = Permeability from basolateral to apical side of human Caco-2 cells; type: ADME, cell-based; conditions: read-out: permeability
Rattus norvegicus [10] = experiment: Inhibition of haloperidol-induced catalepsy in po dosed rat administered 30 mins before haloperidol challenge; type: functional, organism-based
[11] = Drug level in rat brain at 30 mg/kg, po measured at 30 mins post dose; type: ADME, organism-based; parameters: dose 30 mg/kg, route oral; conditions: read-out: Drug uptake
[12] = target: T2, Metabotropic glutamate receptor 5 (Homo sapiens, UniProt P41594); experiment: Positive allosteric modulation of human mGluR5 expressed in CHO-K1 cells; type: cell-based
Cytochrome P450 3A4 = Cytochrome P450 3A4 (Homo sapiens, UniProt P08684); experiment: Inhibition of CYP3A4 up to 50 uM; type: ADME
Cytochrome P450 2C19 = Cytochrome P450 2C19 (Homo sapiens, UniProt P33261); experiment: Inhibition of CYP2C19 up to 50 uM; type: ADME
[13] = target: Metabotropic glutamate receptor 4 (Rattus norvegicus, UniProt P31423); experiment: Positive allosteric modulation of rat mGluR4 expressed in CHO-K1 cells; type: cell-based
Rattus norvegicus [14] = species on record: Rattus norvegicus; experiment: Hepatic blood flow in rat; type: ADME, organism-based, Liver
[15] = target: T2, Metabotropic glutamate receptor 5; experiment: Agonist activity at human mGluR5 expressed in CHO-K1 cells in absence of glutamate; type: functional, cell-based
[16] = target: Metabotropic glutamate receptor 5 (Rattus norvegicus, UniProt P31424); experiment: Negative allosteric modulation of rat mGluR5 expressed in CHO-K1 cells; type: cell-based
[17] = Drug level in rat plasma at 30 mg/kg, po measured at 30 mins post dose; type: ADME, organism-based; parameters: dose 30 mg/kg, route oral; conditions: read-out: Drug uptake
[18] = Volume of distribution in rat at 2 mg/kg, iv; type: ADME, organism-based; parameters: dose 2 mg/kg, route intravenous; conditions: in vivo
[19] = Metabolic stability in rat microsomes; type: ADME, Microsome
Homo sapiens = species on record: Homo sapiens; experiment: Hepatic blood flow in human; type: ADME, organism-based, Liver
[20] = Ratio of drug level in brain to plasma in rat at 30 mg/kg, po measured at 30 mins post dose; type: ADME, organism-based; parameters: dose 30 mg/kg, route oral; conditions: read-out: BPR
[21] = Mean residence time in rat at 2 mg/kg, iv; type: ADME, organism-based; parameters: dose 2 mg/kg, route intravenous; conditions: in vivo, read-out: Time
[22] = Permeability from apical to basolateral side of human Caco-2 cells; type: ADME, cell-based; conditions: read-out: permeability
[23] = target: T1, Metabotropic glutamate receptor 4; experiment: Agonist activity at human mGluR4 expressed in CHO-K1 cells; type: functional, cell-based
Cytochrome P450 2C9 = Cytochrome P450 2C9 (Homo sapiens, UniProt P11712); experiment: Inhibition of CYP2C9 up to 50 uM; type: ADME
[24] = target: T2, Metabotropic glutamate receptor 5; experiment: Negative allosteric modulation of human mGluR5 expressed in CHO-K1 cells; type: cell-based
[25] = target: T3, Alpha-2A adrenergic receptor (Homo sapiens) (UniProt P08913); experiment: Activity at adrenergic alpha 2A receptor at 10 uM
T3 sequence (whole entry): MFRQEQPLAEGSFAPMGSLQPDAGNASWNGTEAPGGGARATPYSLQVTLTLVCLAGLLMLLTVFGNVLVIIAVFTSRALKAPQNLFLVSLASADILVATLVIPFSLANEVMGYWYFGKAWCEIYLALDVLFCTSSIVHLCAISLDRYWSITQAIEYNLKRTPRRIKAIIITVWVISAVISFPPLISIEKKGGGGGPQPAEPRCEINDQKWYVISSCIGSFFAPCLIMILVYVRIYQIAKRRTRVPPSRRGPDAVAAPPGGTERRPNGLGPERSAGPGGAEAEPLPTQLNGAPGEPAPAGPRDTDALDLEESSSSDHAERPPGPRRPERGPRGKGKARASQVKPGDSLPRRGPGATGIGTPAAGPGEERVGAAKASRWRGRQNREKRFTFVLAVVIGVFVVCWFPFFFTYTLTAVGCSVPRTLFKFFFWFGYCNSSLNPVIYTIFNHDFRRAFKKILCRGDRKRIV

[26] = target: T4, 5-hydroxytryptamine receptor 1A (Homo sapiens) (UniProt P08908); experiment: Activity at 5HT1A receptor at 10 uM
T4 sequence (whole entry): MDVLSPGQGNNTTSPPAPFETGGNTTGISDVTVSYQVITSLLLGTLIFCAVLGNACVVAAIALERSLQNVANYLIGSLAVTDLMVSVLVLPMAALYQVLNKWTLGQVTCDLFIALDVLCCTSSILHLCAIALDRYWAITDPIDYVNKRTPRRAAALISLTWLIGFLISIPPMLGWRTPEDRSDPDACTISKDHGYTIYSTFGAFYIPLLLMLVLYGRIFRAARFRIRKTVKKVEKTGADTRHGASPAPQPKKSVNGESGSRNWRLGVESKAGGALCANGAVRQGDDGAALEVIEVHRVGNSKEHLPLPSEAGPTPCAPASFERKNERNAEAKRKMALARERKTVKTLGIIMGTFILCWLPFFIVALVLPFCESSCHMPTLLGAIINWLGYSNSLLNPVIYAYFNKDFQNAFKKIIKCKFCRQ

T1 sequence (Q14833 whole entry): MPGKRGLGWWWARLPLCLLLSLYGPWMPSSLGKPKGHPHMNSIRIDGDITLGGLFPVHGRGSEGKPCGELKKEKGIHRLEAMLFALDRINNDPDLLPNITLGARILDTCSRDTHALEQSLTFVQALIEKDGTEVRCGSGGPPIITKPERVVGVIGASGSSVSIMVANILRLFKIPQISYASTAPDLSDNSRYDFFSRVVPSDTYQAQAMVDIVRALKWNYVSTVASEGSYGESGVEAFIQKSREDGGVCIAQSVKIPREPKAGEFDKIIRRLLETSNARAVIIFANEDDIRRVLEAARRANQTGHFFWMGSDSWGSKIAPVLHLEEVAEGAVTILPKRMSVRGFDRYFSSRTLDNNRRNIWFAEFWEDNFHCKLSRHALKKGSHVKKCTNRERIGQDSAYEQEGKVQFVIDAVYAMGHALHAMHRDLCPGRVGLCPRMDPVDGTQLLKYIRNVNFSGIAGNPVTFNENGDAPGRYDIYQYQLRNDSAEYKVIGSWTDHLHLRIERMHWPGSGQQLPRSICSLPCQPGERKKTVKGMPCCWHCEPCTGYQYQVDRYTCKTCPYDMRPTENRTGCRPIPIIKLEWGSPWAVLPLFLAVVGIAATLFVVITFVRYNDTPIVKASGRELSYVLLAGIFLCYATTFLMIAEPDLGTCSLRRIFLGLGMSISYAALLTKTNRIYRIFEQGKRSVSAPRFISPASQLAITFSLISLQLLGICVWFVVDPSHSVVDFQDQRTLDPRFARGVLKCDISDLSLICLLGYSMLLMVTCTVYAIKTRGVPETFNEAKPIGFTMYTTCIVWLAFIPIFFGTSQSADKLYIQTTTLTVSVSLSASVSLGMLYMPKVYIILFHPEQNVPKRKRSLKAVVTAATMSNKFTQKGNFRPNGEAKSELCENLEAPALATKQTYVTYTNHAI
T2 sequence (P41594 whole entry): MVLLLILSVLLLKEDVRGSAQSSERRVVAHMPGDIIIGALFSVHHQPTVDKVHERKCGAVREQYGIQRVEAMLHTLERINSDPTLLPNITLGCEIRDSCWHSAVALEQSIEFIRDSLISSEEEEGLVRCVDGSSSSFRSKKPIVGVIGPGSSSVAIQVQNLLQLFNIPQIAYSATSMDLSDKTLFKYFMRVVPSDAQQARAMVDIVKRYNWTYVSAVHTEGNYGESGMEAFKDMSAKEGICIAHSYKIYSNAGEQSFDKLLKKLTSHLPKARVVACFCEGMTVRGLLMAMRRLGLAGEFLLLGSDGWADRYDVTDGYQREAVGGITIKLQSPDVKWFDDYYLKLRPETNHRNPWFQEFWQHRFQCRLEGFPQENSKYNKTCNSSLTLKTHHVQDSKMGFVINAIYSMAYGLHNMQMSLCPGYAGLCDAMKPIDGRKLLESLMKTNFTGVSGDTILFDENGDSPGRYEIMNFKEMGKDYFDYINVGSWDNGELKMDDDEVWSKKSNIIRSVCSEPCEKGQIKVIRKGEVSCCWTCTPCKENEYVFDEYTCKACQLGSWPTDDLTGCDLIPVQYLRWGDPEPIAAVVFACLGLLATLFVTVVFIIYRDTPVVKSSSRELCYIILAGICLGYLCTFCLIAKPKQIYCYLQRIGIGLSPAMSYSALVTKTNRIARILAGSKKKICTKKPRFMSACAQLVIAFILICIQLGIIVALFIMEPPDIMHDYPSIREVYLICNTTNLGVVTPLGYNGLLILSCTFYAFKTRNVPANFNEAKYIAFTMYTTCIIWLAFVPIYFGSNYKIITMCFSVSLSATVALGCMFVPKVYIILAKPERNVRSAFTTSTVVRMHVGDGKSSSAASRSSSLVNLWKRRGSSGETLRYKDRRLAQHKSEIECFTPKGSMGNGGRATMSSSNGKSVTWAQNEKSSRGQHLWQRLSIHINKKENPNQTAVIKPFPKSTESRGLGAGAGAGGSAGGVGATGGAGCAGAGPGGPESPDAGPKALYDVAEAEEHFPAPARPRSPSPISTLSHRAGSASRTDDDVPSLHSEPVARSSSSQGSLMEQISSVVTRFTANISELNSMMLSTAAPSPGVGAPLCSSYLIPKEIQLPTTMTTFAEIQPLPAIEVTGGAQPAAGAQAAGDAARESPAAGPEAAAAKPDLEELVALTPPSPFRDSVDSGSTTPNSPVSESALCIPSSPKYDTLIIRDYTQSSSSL
Cytochrome P450 2C19, sequence (P33261 whole entry): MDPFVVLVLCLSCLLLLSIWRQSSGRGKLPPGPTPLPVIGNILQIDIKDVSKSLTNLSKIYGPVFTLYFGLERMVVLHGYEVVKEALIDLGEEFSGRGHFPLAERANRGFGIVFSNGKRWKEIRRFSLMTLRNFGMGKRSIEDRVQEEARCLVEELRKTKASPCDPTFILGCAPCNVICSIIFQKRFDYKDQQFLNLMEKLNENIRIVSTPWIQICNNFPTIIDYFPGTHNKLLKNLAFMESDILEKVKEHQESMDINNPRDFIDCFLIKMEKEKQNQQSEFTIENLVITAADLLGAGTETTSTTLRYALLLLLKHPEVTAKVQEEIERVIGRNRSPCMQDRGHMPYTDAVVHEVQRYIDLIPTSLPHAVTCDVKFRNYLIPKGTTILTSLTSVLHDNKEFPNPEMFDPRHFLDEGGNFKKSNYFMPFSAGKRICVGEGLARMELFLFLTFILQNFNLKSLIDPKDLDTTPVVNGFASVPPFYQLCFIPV
Cytochrome P450 3A4, sequence (P08684 whole entry): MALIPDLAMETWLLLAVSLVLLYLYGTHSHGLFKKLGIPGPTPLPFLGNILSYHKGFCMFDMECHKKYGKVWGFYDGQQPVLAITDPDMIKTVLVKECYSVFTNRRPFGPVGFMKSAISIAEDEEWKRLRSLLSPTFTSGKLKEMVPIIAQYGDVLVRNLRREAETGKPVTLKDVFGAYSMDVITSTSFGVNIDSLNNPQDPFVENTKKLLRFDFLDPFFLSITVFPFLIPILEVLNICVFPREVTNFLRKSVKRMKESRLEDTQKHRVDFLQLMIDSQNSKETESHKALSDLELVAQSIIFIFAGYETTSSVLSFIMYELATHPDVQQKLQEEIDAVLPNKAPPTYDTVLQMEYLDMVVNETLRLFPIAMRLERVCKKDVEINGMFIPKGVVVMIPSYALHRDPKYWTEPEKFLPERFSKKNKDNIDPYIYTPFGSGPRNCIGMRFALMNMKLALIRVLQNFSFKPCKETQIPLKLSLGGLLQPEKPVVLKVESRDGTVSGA
Cytochrome P450 2C9, sequence (P11712 whole entry): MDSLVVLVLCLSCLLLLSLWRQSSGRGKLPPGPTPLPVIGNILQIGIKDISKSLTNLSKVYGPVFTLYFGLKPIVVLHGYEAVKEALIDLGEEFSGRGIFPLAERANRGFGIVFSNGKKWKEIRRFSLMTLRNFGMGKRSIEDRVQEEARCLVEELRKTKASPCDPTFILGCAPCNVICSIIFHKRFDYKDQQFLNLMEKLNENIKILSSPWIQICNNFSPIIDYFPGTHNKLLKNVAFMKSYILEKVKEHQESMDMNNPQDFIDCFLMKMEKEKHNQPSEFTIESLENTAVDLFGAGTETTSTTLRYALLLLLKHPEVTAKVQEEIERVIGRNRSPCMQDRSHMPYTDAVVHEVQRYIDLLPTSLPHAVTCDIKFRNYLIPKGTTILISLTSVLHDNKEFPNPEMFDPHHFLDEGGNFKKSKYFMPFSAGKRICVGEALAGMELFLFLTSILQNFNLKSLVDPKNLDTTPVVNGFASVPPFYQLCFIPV
Adenosine receptor A2a (Homo sapiens), sequence (P29274 whole entry): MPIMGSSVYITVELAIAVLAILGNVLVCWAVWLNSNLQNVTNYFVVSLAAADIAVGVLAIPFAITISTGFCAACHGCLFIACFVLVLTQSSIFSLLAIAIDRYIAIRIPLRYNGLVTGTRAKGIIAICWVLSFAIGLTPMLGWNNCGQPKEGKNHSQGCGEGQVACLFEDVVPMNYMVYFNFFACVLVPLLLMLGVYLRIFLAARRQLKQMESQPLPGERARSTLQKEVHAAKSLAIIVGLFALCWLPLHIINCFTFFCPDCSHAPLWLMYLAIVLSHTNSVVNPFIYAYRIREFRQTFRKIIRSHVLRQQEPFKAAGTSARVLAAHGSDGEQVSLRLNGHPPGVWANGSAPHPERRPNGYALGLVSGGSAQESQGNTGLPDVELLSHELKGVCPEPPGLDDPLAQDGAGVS
Cytochrome P450 2D6, sequence (P10635 whole entry): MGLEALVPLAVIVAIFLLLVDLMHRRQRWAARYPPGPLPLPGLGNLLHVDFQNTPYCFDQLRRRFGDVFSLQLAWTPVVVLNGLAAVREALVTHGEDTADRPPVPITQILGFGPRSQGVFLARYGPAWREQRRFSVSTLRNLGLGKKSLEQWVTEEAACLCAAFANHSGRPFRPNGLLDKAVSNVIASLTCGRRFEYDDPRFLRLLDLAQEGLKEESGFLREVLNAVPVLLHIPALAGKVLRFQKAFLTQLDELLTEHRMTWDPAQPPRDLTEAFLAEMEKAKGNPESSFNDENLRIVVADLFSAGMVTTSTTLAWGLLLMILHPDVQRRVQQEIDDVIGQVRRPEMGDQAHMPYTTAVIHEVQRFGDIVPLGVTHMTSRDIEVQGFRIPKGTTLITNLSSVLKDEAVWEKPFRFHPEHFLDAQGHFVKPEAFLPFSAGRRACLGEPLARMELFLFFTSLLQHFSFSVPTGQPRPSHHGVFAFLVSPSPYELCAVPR

With `CN(C)c1nccc(/C=C/c2ccccc2)n1` the pEC50 [1] was < 4.52.
In the case of `Nc1cccc(/C=C/c2ccccc2)n1`, the Emax [2] was 92% and the pEC50 [1] was 5.24.
Work on `Cc1nccc(/C=C/c2ccccc2)n1` yielded an Emax [2] of 67% and a pEC50 [1] of 5.16.
With `Cc1ccc(/C=C/c2ccnc(N)n2)cc1` the pEC50 [1] was < 4.52.
In the case of `Nc1nccc(-c2ccc3ccccc3c2)n1`, the pEC50 [1] was < 4.52.
In the case of `Nc1ncc([C@@H]2C[C@H]2c2ccccc2)cn1`, the pEC50 [1] was < 4.52.
Work on `Nc1nccc(/C=C/c2cccc(F)c2)n1` yielded an Emax [2] of 99% and a pEC50 [1] of 5.35.
Work on `Cc1cc(/C=C/c2ccccc2)nc(N)n1` yielded an Emax [2] of 99% and a pEC50 [1] of 6.10.
Compound `Nc1nccc(/C=C/c2cccnc2)n1` has an Emax [2] of 55% and a pEC50 [1] of 4.79.
`Nc1nccc(C#Cc2ccccc2)n1` showed an Emax [2] of 86% and a pEC50 [1] of 4.70.
With `Nc1nccc(/C=C/c2ccc(F)cc2)n1` the Emax [2] was 106% and the pEC50 [1] was 5.35.
`Cc1nc(N)nc(/C=C/c2ccccc2)c1C` showed an Emax [2] of 88% and a pEC50 [1] of 5.80.
In the case of `N#Cc1ccc(/C=C/c2ccnc(N)n2)cc1`, the pEC50 [1] was < 4.52.
In the case of `N#Cc1ccccc1/C=C/c1ccnc(N)n1`, the pEC50 [1] was < 4.52.
With `COc1cc(/C=C/c2ccccc2)nc(N)n1` the Emax [2] was 106% and the pEC50 [1] was 5.70.
In the case of `Nc1nccc(-c2cc3ccccc3s2)n1`, the pEC50 [1] was < 4.52.
With `CCOC(=O)C(=O)Nc1nccc(/C=C/c2ccccc2)n1` the Emax [2] was 82% and the pEC50 [1] was 5.30.
Work on `Nc1nccc(/C=C/c2ccccc2F)n1` yielded an Emax [2] of 101% and a pEC50 [1] of 5.54.
In the case of `Nc1cncc(/C=C/c2ccccc2)n1`, the Emax [2] was 72% and the pEC50 [1] was 4.80.
For `Nc1nccc(/C=C/c2ccco2)n1`, the Emax [2] was 94% and the pEC50 [1] was 5.03.
With `Cc1cccc(/C=C/c2ccnc(N)n2)c1` the pEC50 [1] was < 4.52.
For `CS(=O)(=O)Nc1nccc(/C=C/c2ccccc2)n1`, the pEC50 [1] was < 4.52.
In the case of `Nc1ncc(Br)c(/C=C/c2ccccc2)n1`, the Emax [2] was 94% and the pEC50 [1] was 5.89.
For `Nc1ncc(Cl)c(/C=C/c2ccccc2)n1`, the Emax [2] was 102% and the pEC50 [1] was 5.80.
For `Nc1nccc(/C=C/c2ccncc2)n1`, the pEC50 [1] was < 4.52.
For `Cc1ccccc1/C=C/c1ccnc(N)n1`, the pEC50 [1] was < 4.52.
For `C(=C\c1ccnc(-c2ccccc2)n1)/c1ccccc1`, the pEC50 [1] was < 4.52.
For `Nc1nc(O)cc(/C=C/c2ccccc2)n1`, the pEC50 [1] was < 4.52.
For `N#Cc1cccc(/C=C/c2ccnc(N)n2)c1`, the pEC50 [1] was < 4.52.
With `Nc1nccc(CCc2ccccc2)n1` the pEC50 [1] was < 4.52.
With `Nc1cc(/C=C/c2ccccc2)nc(N)n1` the pEC50 [1] was < 4.52.
For `Nc1nccc(/C=C/c2ccccn2)n1`, the Emax [2] was 92% and the pEC50 [1] was 4.93.
Compound `Cc1cnc(N)nc1/C=C/c1ccccc1` has an Emax [2] of 94% and a pEC50 [1] of 6.70.
For `Nc1nccc(/C=C/c2cccs2)n1`, the Emax [2] was 98% and the pEC50 [1] was 5.39.
With `Sc1nccc(/C=C/c2ccccc2)n1` the Emax [2] was 115% and the pEC50 [1] was 5.11.
In the case of `CNc1nccc(/C=C/c2ccccc2)n1`, the pEC50 [1] was < 4.52.
Compound `Nc1nc(/C=C/c2ccccc2)cc(C(F)(F)F)n1` has an Emax [2] of 95% and a pEC50 [1] of 6.22.
`Nc1nccc(-c2cc3ccccc3o2)n1` gave an Emax [2] of 58% and a pEC50 [1] of 5.31.
Work on `Nc1nccc(/C=C/c2ccccc2)n1` yielded a Stability [3] of 62%, a fraction unbound [4] of 0.1 and a concentration at 0.5 h [5] of 0.7 µM. For the same compound, the clearance [6] was 75 mL/min/kg, the bioavailability [7] was 51% and the Emax [2] was 106%. The “inhibition (INH)” value (Cytochrome P450 2D6) was “Not Active”, the Activity [8] was > 50% and the Papp B→A [9] was 19.6 ×10⁻⁶ cm/s. For the same compound, the Activity (Rattus norvegicus [10]) was “Dose-dependent effect”, the inhibition (Rattus norvegicus [10]) was “Dose-dependent effect” and the concentration at 0.5 h [11] was 33.8 µM. The pEC50 [12] was < 5.00, the “inhibition (INH)” value (Cytochrome P450 3A4) was “Not Active” and the “inhibition (INH)” value (Cytochrome P450 2C19) was “Not Active”. For the same compound, the pEC50 [13] was 6.00, the pEC50 [1] was 6.00 and the QH (Rattus norvegicus [14]) was 83%. For the same compound, the pEC50 [15] was < 5.00, the pIC50 [16] was < 5.00 and the concentration at 0.5 h [17] was 11.6 µM. It also gave a Vd [18] of 2.7 L/kg, a Stability [19] of 62% and a QH (Homo sapiens) of 83%. It also gave a Kp at 0.5 h [20] of 2.9, an MRT [21] of 36 min and a Papp A→B [22] of 41.9 ×10⁻⁶ cm/s. For the same compound, the pEC50 [23] was < 4.52, the “inhibition (INH)” value (Cytochrome P450 2C9) was “Not Active” and the pIC50 [24] was < 4.52. For the same compound, the Activity [25] was > 50% and the Activity [26] was > 50%.
